Test results reported in patent US8221658B2, “Mixed salts of diorganylphosphinic acids and carboxylic acids” (Clariant Finance (BVI) Limited, priority 2007, dated 2012).

Assays:
[1] = Decomposition in differential thermal analysis (2% weight loss, atmosphere: air); assay type: physicochemical
Protocol: A mixture of 5 g of terephthalic acid and 3.9 g of aluminum trisdiethylphosphinate is reacted for 0.5 h at 350° C., as in example 1.

[2] = under nitrogen; cited from earlier work

CCP(=O)([O-])CC.O=C([O-])c1ccc(C(=O)[O-])cc1.[Al+3] [Example 4, aluminum mono(diethylphosphinate)terephthalate]
Decomposition in differential thermal analysis (2% weight loss) [1]: 425 °C

aluminum trisdiethylphosphinate
Evaporation temperature [2]: 400 to 500 °C | Decomposition in differential thermal analysis (2% weight loss) [1]: 355 °C

aluminum terephthalate
Decomposition in differential thermal analysis (2% weight loss) [1]: 298 °C

CC(C)CP(=O)([O-])CC(C)C.CC(C)CP(=O)([O-])CC(C)C.CC(C)CP(=O)([O-])CC(C)C.[Al+3] [aluminum salt of diisobutylphosphinic acid]
Evaporation temperature [2]: 300 to 400 °C
